According to patent US7989451B2, “Tricyclic 1,2,4-triazine oxides and compositions for therapeutic use in cancer treatments” (Auckland Uniservices Limited, priority 2005, dated 2011):
Read-outs that look alike come from different tables or passages of the source.

How the values were obtained:
[1] = test system: human colon carcinoma HT29; test: Proliferation assay (IC50) under aerobic and hypoxic conditions, HT29; format: cell-based; conditions: for IC50: Homo sapiens, 4 h drug exposure, sulforhodamine B; for HCR: hypoxic cytotoxicity ratio = IC50 aerobic/IC50 hypoxic
Description: (§1) Compounds representative of the invention were evaluated under both aerobic and hypoxic conditions in a proliferation assay (IC50), using two cell lines: human colon carcinoma HT29, and human cervical carcinoma SiHa (Table 1).
(§2) Drug exposures were performed in 96-well plates (Nunc) either using a 37 DC humidified incubator (20% O2, 5% CO2) or in the incubator compartment (37° C.) of an anaerobic chamber (Shell Lab) where palladium catalyst scrubbed gas (90% N2, 5% H2, 5% CO2) ensures severe anoxia (<0.001% O2). For each experiment, compounds were simultaneously tested under both oxic and hypoxic conditions and included TPZ as an internal control. An 8-methyl-5-nitroquinoline derivative, SN 24349, known to require very low oxygen concentrations for bioactivation (Siim et al., Br. J. Cancer 1994, 70, 596-603) was used to confirm that strict hypoxia was present during the experiment. […] Cell cultures were grown in αMEM (Gibco) containing 5% heat inactivated FCS and maintained in exponential growth phase. For each individual experiment an appropriate number of cells were seeded (HT29=1100; SiHa=1500) into wells in αMEM+10% FCS+10 mM added glucose+100 μM 2′-deoxycytidine (2′dCyd), and allowed to attach for 2-3 h. High glucose (final concentration 17 mM) and the presence of 2′-dCyd minimize hypoxia-induced cell cycle arrest. Cultures were then exposed to drugs, using 3-fold serial dilutions in duplicate, for a further 4 h. Subsequently cells were washed free of compound using complete media (without glucose/2′-dCyd) and allowed to grow for 5 (oxic) or 6 (anoxic) days. Plates were stained with sulforhodamine B as described previously (Wilson et al., J. Med. Chem. 1989, 32, 31-38) and IC50 values determined.
(§3) HCR=Hypoxic cytotoxicity ratio is defined as the ratio of IC50 values under aerobic and hypoxic conditions (IC50 aerobic/IC50 hypoxic).

[2] = test system: human cervical carcinoma SiHa; test: Proliferation assay (IC50) under aerobic and hypoxic conditions, SiHa; format: cell-based; conditions: for IC50: Homo sapiens, 4 h drug exposure, sulforhodamine B; for HCR: hypoxic cytotoxicity ratio = IC50 aerobic/IC50 hypoxic
Description: as §1, §2, §3

[3] = HT-29, hypoxic (anaerobic chamber, <0.001% O2), then 6 days growth, read-out: IC50 (μM) hypoxic
[4] = HT-29, oxic (20% O2), then 5 days growth, read-out: IC50 (μM) oxic
[5] = hypoxic (anaerobic chamber, <0.001% O2), then 6 days growth, read-out: IC50 (μM) hypoxic
[6] = oxic (20% O2), then 5 days growth, read-out: IC50 (μM) oxic

Compound | IC50 [1, 3] [µM] | IC50 [1, 4] [µM] | IC50 [2, 5] [µM] | IC50 [2, 6] [µM] | melting point | HCR [1] | HCR [2]
CN(C)CCNc1n[n+]([O-])c2c3c(ccc2[n+]1[O-])CCC3 [Compound 7, N^1,N^1-Dimethyl-N^2-(1,4-dioxido-8,9-dihydro-7H-indeno[5,4-e][1,2,4]triazin-3-yl)-1,2-ethanediamine] | 3 | 255 ± 53 | 1.6 | 226 ± 46 | 153 to 156 °C | 67 | 99
CCN(CC)CCNc1n[n+]([O-])c2c3c(ccc2[n+]1[O-])CCC3 [Compound 9, N^1,N^1-Diethyl-N^2-(1,4-dioxido-8,9-dihydro-7H-indeno[5,4-e][1,2,4]triazin-3-yl)-1,2-ethanediamine] | 4.2 ± 1.5 | 72 ± 22 | 0.9 ± 0.2 | 59 ± 4 | 138 to 141 °C | 17 ± 5 | 64 ± 4
CCCN(CCC)CCNc1nc2ccc3c(c2[n+]([O-])n1)CCC3 [Compound 11, N^1-(1-Oxido-8,9-dihydro-7H-indeno[5,4-e][1,2,4]triazin-3-yl)-N^2,N^2-dipropyl-1,2-ethanediamine] | 12.4 | 99 ± 9 | 3.3 ± 0.3 | 74 ± 27 | 133 to 135 °C | 7 | 23 ± 10
[O-][n+]1nc(NCCN2CCCCC2)[n+]([O-])c2ccc3c(c21)CCC3 [Compound 13, N-[2-(1-Piperidinyl)ethyl]-8,9-dihydro-7H-indeno[5,4-e][1,2,4]triazin-3-amine 1,4-Dioxide] | 4.9 ± 0.6 | 251 ± 24 | 1 ± 0.1 | 52 ± 8 | 138 to 141 °C | 53 ± 11 | 51 ± 1
Nc1n[n+]([O-])c2cc3c(cc2[n+]1[O-])CCC3 [Compound 20, 7,8-Dihydro-6H-indeno[5,6-e][1,2,4]triazin-3-amine 1,4-Dioxide] | 15 ± 6 | 387 ± 108 | 8.3 ± 0.4 | 253 ± 30 | 190 to 195 °C | 27 ± 2 | 31 ± 5
CN(C)CCNc1n[n+]([O-])c2cc3c(cc2[n+]1[O-])CCC3 [Compound 23, N^1-(1,4-Dioxido-7,8-dihydro-6H-indeno[5,6-e][1,2,4]triazin-3-yl)-N^2,N^2-dimethyl-1,2-ethanediamine] | 2.3 ± 0.6 | 318 ± 14 | 0.7 ± 0.3 | 105 ± 21 | 150 to 153 °C | 152 ± 35 | 111 ± 5
[O-][n+]1nc(NCCO)[n+]([O-])c2cc3c(cc21)CCC3 [Compound 25, 2-[(1,4-Dioxido-7,8-dihydro-6H-indeno[5,6-e][1,2,4]triazin-3-yl)amino]ethanol] | 47 ± 4 | 1520 | 17.7 ± 0.6 | 751 | 187 to 188 °C | 32 | 42
CCCN(CCC)CCNc1n[n+]([O-])c2cc3c(cc2[n+]1[O-])CCC3 [Compound 29, N^1-(1,4-Dioxido-7,8-dihydro-6H-indeno[5,6-e][1,2,4]triazin-3-yl)-N^2,N^2-dipropyl-1,2-ethanediamine] | 2.5 | 196 | 0.7 | 63 | 142 to 145 °C | 77 | 91
[O-][n+]1nc(NCCN2CCCCC2)[n+]([O-])c2cc3c(cc21)CCC3 [Compound 37, N-[2-(1-Piperidinyl)ethyl]-7,8-dihydro-6H-indeno[5,6-e][1,2,4]triazin-3-amine 1,4-Dioxide] | 5.8 ± 2.9 | 186 ± 58 | 1.3 ± 0.4 | 101 ± 25 | 165 to 168 °C | 49 ± 35 | 143
CC1CCCC(C)N1CCNc1n[n+]([O-])c2cc3c(cc2[n+]1[O-])CCC3 (stereo not drawn) [Compound 39, N-[2-(2,6-Dimethyl-1-piperidinyl)ethyl]-7,8-dihydro-6H-indeno[5,6-e][1,2,4]triazin-3-amine 1,4-Dioxide] | 2.7 ± 0.2 | 117 ± 47 | 1.1 ± 0.1 | 73 ± 14 | 170 to 172 °C | 42 ± 15 | 65 ± 13
COC1CCN(CCNc2n[n+]([O-])c3cc4c(cc3[n+]2[O-])CCC4)CC1 [Compound 43, N-[2-(4-Methoxy-1-piperidinyl)ethyl]-7,8-dihydro-6H-indeno[5,6-e][1,2,4]triazin-3-amine 1,4-Dioxide] | 3.5 ± 0.3 | 187 ± 98 | 1.2 ± 0.1 | 91 ± 3 | 148 to 151 °C | 56 ± 33 | 78 ± 11
[O-][n+]1nc(NCCCO)[n+]([O-])c2cc3c(cc21)CCC3 [Compound 51, 3-[(1,4-Dioxido-7,8-dihydro-6H-indeno[5,6-e][1,2,4]triazin-3-yl)amino]-1-propanol] | > 50 | 1610 | 20.5 ± 3.3 | 455 ± 25 | 182 to 184 °C | – | 22 ± 1
COC1CCN(CCCNc2n[n+]([O-])c3cc4c(cc3[n+]2[O-])CCC4)CC1 [Compound 59, N-[3-(4-Methoxy-1-piperidinyl)propyl]-7,8-dihydro-6H-indeno[5,6-e][1,2,4]triazin-3-amine 1,4-Dioxide] | 7.1 ± 0.8 | 494 ± 36 | 2 ± 0.2 | 114 ± 2 | 128 to 130 °C | 70 ± 5 | 57 ± 1

Second part, led by results:

IC50 [1, 3] [µM] | IC50 [1, 4] [µM] | IC50 [2, 5] [µM] | IC50 [2, 6] [µM] | melting point | Compound | HCR [1] | HCR [2]
5.9 ± 0.8 | 172 ± 100 | 2.5 ± 0.8 | 162 ± 48 | 58 to 61 °C | COCCN(C)CCNc1n[n+]([O-])c2cc3c(cc2[n+]1[O-])CCC3 [Compound 31, N^1-(1,4-Dioxido-7,8-dihydro-6H-indeno[5,6-e][1,2,4]triazin-3-yl)-N^2-(2-methoxyethyl)-N2-methyl-1,2-ethanediamine] | 26 ± 12 | 67 ± 2
6.3 ± 2.1 | 315 ± 84 | 2 ± 1.1 | 152 ± 38 | 129 to 131 °C | COCCCN(C)CCNc1n[n+]([O-])c2cc3c(cc2[n+]1[O-])CCC3 [Compound 33, N^1-(1,4-Dioxido-7,8-dihydro-6H-indeno[5,6-e][1,2,4]triazin-3-yl)-N^2-(3-methoxypropyl)-N^2-methyl-1,2-ethanediamine] | 52 ± 4 | 92 ± 30
3.4 ± 0.1 | 165 ± 10 | 1.8 ± 0.2 | 108 ± 8 | 152 °C (dec.) | COC1CN(CCNc2n[n+]([O-])c3cc4c(cc3[n+]2[O-])CCC4)C1 [Compound 35, N-[2-(3-Methoxy-1-azetidinyl)ethyl]-7,8-dihydro-6H-indeno[5,6-e][1,2,4]triazin-3-amine 1,4-Dioxide] | 49 ± 5 | 61 ± 10
1.4 ± 0.1 | 72 ± 2 | 0.71 ± 0.01 | 67 ± 5 | 181 to 184 °C | [O-][n+]1nc(NCCN2CCCCCC2)[n+]([O-])c2cc3c(cc21)CCC3 [Compound 47, N-[2-(1-Azepanyl)ethyl]-7,8-dihydro-6H-indeno[5,6-e][1,2,4]triazin-3-amine 1,4-Dioxide] | 52 ± 1 | 95 ± 6
5.4 ± 2.8 | 261 ± 90 | 2.6 ± 0.4 | 142 ± 6 | 77 to 79 °C | COCCN(C)CCCNc1n[n+]([O-])c2cc3c(cc2[n+]1[O-])CCC3 [Compound 53, N^1-(1,4-Dioxido-7,8-dihydro-6H-indeno[5,6-e][1,2,4]triazin-3-yl)-N^3-(2-methoxyethyl)-N^3-methyl-1,3-propanediamine] | 81 ± 60 | 55 ± 6
2.4 ± 0.3 | 233 ± 19 | 1.4 ± 0.4 | 99 ± 14 | 150 to 152 °C | COC1CN(CCCNc2n[n+]([O-])c3cc4c(cc3[n+]2[O-])CCC4)C1 [Compound 55, N-[3-(3-Methoxy-1-azetidinyl)propyl]-7,8-dihydro-6H-indeno[5,6-e][1,2,4]triazin-3-amine 1,4-Dioxide] | 102 ± 22 | 83 ± 34
